According to patent US6399824B1, “Substituted cinnamic, acid guanidides, process for their preparation, their use as a medicament, and medicament comprising them” (Aventis Pharma Deutschland GmbH, priority 2000, dated 2002):
Where a name gives a salt, the structure may show the parent alone.

How the values were obtained:
rNHE3 = target: T1, rNHE3 (Rattus norvegicus, UniProt P26433); test: Recovery of intracellular pH (pHi) after acidification, BCECF fluorescence, NHE inhibition; type: cell-based; conditions: pH recovery recorded 3 minutes for NHE3; bicarbonate-free conditions
T1 construct: expressed in transfected cells
T1 sequence (P26433 29-831): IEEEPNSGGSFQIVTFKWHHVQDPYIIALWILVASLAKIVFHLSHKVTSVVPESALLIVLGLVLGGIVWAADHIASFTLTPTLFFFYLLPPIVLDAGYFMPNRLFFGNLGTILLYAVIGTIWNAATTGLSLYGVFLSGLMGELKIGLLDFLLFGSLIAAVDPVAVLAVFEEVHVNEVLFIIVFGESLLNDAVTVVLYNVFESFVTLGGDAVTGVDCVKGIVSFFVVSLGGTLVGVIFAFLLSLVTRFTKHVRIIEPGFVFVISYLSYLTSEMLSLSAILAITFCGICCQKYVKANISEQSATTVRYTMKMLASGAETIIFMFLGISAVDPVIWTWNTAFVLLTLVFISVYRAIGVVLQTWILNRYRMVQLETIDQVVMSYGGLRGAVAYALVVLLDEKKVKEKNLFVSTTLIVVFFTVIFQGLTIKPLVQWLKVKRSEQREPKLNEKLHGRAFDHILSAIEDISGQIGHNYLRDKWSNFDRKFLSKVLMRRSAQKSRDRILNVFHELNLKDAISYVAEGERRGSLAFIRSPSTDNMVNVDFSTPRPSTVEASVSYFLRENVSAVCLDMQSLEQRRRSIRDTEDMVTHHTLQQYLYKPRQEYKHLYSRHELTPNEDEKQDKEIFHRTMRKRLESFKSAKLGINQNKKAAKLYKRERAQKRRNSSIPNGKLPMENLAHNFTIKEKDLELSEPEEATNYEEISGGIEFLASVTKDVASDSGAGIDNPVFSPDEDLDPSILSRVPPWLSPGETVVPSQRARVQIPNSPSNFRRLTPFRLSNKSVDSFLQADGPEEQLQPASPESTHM
Description: In this test, the recovery of the intracellular pH (pHi) which commences with functional NHE after acidification even under bicarbonate-free conditions. For this, the pHi was determined using the pH-sensitive fluorescent dye BCECF (Calbiochem, the precursor BCECF-AM is employed). The cells were first loaded with BCECF. The BCECF fluorescence was determined in a ratio fluorescence spectrometer (Photon Technology International, South Brunswick, N.J., USA) at excitation wavelengths of 505 and 440 nm and an emission wavelength of 535 nm and converted into the pHi by means of calibration curves. During BCECF loading, the cells were already incubated in NH4Cl buffer (pH 7.4) (NH4Cl buffer: 115 mM NaCl, 20 mM NH4Cl, 5 mM KCl, 1 mM CaCl2, 1 mM MgSO4, 20 mM Hepes, 5 mM glucose, 1 mg/ml of BSA; a pH of 7.4 is set using 1 M NaOH). The intracellular acidification was induced by addition of 975 μl of an NH4Cl-free buffer (see below) to 25 μl aliquots of the cells incubated in NH4Cl buffer. The subsequent rate of the pH recovery was recorded for 2 minutes in the case of NHE1, for 5 minutes in the case of NHE2 and 3 minutes in the case of NHE3. For the calculation of the inhibitory potency of the tested substances, the cells were first investigated in buffers in which a complete recovery or no pH recovery at all took place. For complete pH recovery (100%), the cells were incubated in Na^+-containing buffer (133.8 mM NaCl, 4.7 mM KCl, 1.25 mM CaCl2, 1.25 mM MgCl2, 0.97 mM Na2HPO4, 0.23 mM NaH2PO4, 5 mM Hepes, 5 mM glucose, a pH of 7.0 is set using 1 M NaOH). For the determination of the 0% value, the cells were incubated in an Na^+-free buffer (133.8 mM choline chloride, 4.7 mM KCl, 1.25 mM CaCl2, 1.25 mM MgCl2, 0.97 mM K2HPO4, 0.23 mM KH2PO4, 5 mM Hepes, 5 mM glucose, a pH of 7.0 is set using 1 M NaOH). The substances to be tested were applied in the Na^+-containing buffer. The recovery of the intracellular pH at any tested concentration of a substance was expressed as a percentage of the maximum recovery. By means of the program Sigma Plot, the IC50 value of the respective substance for the individual NHE subtypes was calculated from the percentage values of the pH recovery.

[1] = Solubility by UV spectroscopy in 0.9% strength NaCl solution; type: physicochemical; conditions: 0.9% NaCl solution, saline or isotonic
Description: The solubilities indicated below are determined by UV spectroscopy in a 0.9% strength NaCl solution.

| IC50 (rNHE3) | solubility [1] | SMILES |
| --- | --- | --- |
| 70 nM | – | C/C(=C\c1cc(F)c(Oc2ccc(S(N)(=O)=O)cc2)c(F)c1)C(=O)N=C(N)N [Example 1, 4-[2,6-Difluoro-4-(3-guanidino-2-methyl-3-oxopropenyl)phenoxy]benzenesulfonamide; HCl salt] |
| 20 nM | – | C/C(=C\c1cc(F)c(Oc2ccc(S(N)(=O)=O)cc2)c(F)c1)C(=O)N=C(N)N [Example 2, 4-[2,6-Difluoro-4-(3-guanidino-2-methyl-3-oxopropenyl)phenoxy]benzenesulfonamide; methanesulfonate] |
| 130 nM | – | C/C(=C\c1ccc(Oc2ccc(S(N)(=O)=O)cc2)cc1)C(=O)N=C(N)N [Example 3, 4-[4-(3-Guanidino-2-methyl-3-oxopropenyl)phenoxy]benzenesulfonamide; HCl salt] |
| 620 nM | – | C/C(=C\c1ccc(Nc2ccc(S(N)(=O)=O)cc2)cc1)C(=O)N=C(N)N [Example 4, 4-[4-(3-Guanidino-2-methyl-3-oxopropenyl)phenylamino]benzenesulfonamide; trifluoroacetate] |
| 1200 nM | – | C/C(=C\c1ccc(Nc2cccc(S(N)(=O)=O)c2)cc1)C(=O)N=C(N)N [Example 5, 3-[4-(3-Guanidino-2-methyl-3-oxopropenyl)phenylamino]benzenesulfonamide, trifluoroacetate] |
| 60 nM | 1860 µg/mL | C/C(=C\c1cc(F)c(Oc2ccc(S(=O)(=O)NCCN(C)C)cc2)c(F)c1)C(=O)N=C(N)N.Cl.Cl [Example 6, 4-[2 ,6-Difluoro-4-(3-guanidino-2-methyl-3-oxopropenyl)phenoxy]-N-(2-dimethylaminoethyl)benzenesulfonamide, HCl salt] |
| 2600 nM | > 2190 µg/mL | C/C(=C\c1cc(F)c(Oc2ccc(S(=O)(=O)N3CCN(C)CC3)cc2)c(F)c1)C(=O)N=C(N)N [Example 7, N-(3-{3,5-Difluoro-4-[4-(4-methylpiperazin-1-sulfonyl)phenoxy]phenyl}-2-methyl-acryloyl)guanidine; trifluoroacetate] |
| 90 nM | – | CNC(=O)NS(=O)(=O)c1ccc(Oc2c(F)cc(/C=C(\C)C(=O)N=C(N)N)cc2F)cc1 [Example 8, 4-[2 ,6-Difluoro-4-(3-guanidino-2-methyl-3-oxopropenyl)phenoxy]benzenesulfone N-(carboxy-N′-methylamid)amide; HCl salt] |
| 70 nM | – | CCNC(=O)NS(=O)(=O)c1ccc(Oc2c(F)cc(/C=C(\C)C(=O)N=C(N)N)cc2F)cc1 [Example 9, 4-[2,6-Difluoro-4-(3-guanidino-2-methyl-3-oxopropenyl)phenoxy]benzenesulfone N-(carboxy-N′-ethylamid)amide; HCl salt] |
| 1100 nM | 1280 µg/mL | C/C(=C\c1ccc(Nc2ccc(S(=O)(=O)NCCN(C)C)cc2)cc1)C(=O)N=C(N)N.Cl.Cl [Example 10, N-(2-Dimethylaminoethyl)-4-[4-(3-guanidino-2-methyl-3-oxopropenyl)phenylamino]-benzenesulfonamide; HCl salt] |
| 850 nM | 1520 µg/mL | C/C(=C\c1ccc(Nc2ccc(S(=O)(=O)NCCN3CCCC3)cc2)cc1)C(=O)N=C(N)N.Cl.Cl [Example 11, 4-[4-(3-Guanidino-2-methyl-3-oxopropenyl)phenylamino]-N-(2-pyrrolidin-1-ylethyl)-benzenesulfonamide; HCl salt] |
| 2600 nM | 1760 µg/mL | C/C(=C\c1ccc(Nc2ccc(S(=O)(=O)N3CCN(C)CC3)cc2)cc1)C(=O)N=C(N)N.Cl.Cl [Example 12, N-(2-Methyl-3-{4-[4-(4-methylpiperazine-1-sulfonyl)phenylamino]phenyl}acryloyl)-guanidine; HCl salt] |
| 590 nM | 3080 µg/mL | C/C(=C\c1ccc(Nc2ccc(S(=O)(=O)N(C)C3CCN(C)C3)cc2)cc1)C(=O)N=C(N)N.Cl.Cl (centres unmarked) [Example 13, 4-[4-(3-Guanidino-2-methyl-3-oxopropenyl)phenylamino]-N-methyl-N-(1-methyl-pyrrolidin-3-yl)benzenesulfonamide, HCl salt] |
| 850 nM | – | CNS(=O)(=O)c1ccc(Nc2ccc(/C=C(\C)C(=O)N=C(N)N)cc2)cc1 [Example 14, 4-[4-(3-Guanidino-2-methyl-3-oxopropenyl)phenylamino]-N-methylbenzenesulfonamide; HCl salt] |
